Results: patent US12274781B2, “Use of enzyme-modified isoquercitrin” (SAN-EI GEN F.F.I., INC., priority 2015, dated 2025)
Entries after “also recorded” stand apart in the source; their conditions may differ.

Assays:
[1] = test system: saliva secretion in healthy persons; assay: Salivation-promoting effect of aqueous solutions, non-thickened or thickened with xanthan gum (Experimental Examples 1 and 2); assay type: in vivo, human; conditions: for Amount of salivation (standardized with water): average of 3 panelists, water = 1; for Salivation-promoting (saliva secretion-increasing) effect, in words: Experimental Example 1, aqueous solutions, equimolar in terms of rutin, humans; for Enhancement of the salivation-promoting effect by incorporating a thickening polysaccharide (thickening), in words: Experimental Example 2, 150 μM, 0.1 mass % xanthan gum
Description: Using 3 healthy persons (males, average age: 31.3 years old) as panelists, the salivation-promoting effect of the test samples prepared above was evaluated. Persons whose circadian variation of saliva secretion is relatively similar were selected as the panelists from candidates.
The evaluation was performed using 15 g of each test sample per test according to the following method. As a blank, a test was performed in the same manner using 15 g of water in place of the test samples.
(i) After 15 g of each sample is placed in the mouth and retained for 5 seconds, the sample is swallowed at one time.
(ii) After 5 seconds, absorbent cotton (37.5 mm×37.5 mm×4 mm) is placed under (the back of) the tongue, and retained for 2 minutes.
(iii) The absorbent cotton is removed from under the tongue, and the weight (g) of the cotton is measured. This weight is compared with the weight of the absorbent cotton before being placed in the mouth to calculate the difference in weight.
The above test was performed using the same test sample twice per panelist, and the average was calculated. Based on the average of each panelist, the average and standard deviation of all of the panelists were calculated.
Table 2 and FIG. 1 show the evaluation results (the average of 3 panelists). The results are shown as numerical values (relative values) standardized by setting the saliva secretion amount obtained by using the blank (water) as 1.
Test substances (enzymatically modified isoquercitrin preparation, αG rutin, and quercetin) were dissolved in drinking water, and adjusted so that the rutin content (molarity) of the structure of each compound was 150 μM (see Table 1). Further, xanthan gum was added to the aqueous solutions, so that the content thereof was 0.1 mass %, thus thickening the solutions. For comparison, xanthan gum-free aqueous solutions (an aqueous enzymatically modified isoquercitrin solution, an aqueous αG rutin solution, an aqueous quercetin solution) at a concentration of 150 μM in terms of rutin were prepared in the same manner as in Experimental Example 1.
The salivation-promoting effect of each test sample prepared above was evaluated in the same manner as in Experimental Example 1 (the panelists were also the same). Table 3 and FIG. 2 show the evaluation results (the average of 3 panelists).

saliva secretion in mice = conditions: cited from earlier work
[2] = 75 μM aqueous solution (in terms of rutin or molarity of quercetin), 15 g
[3] = 150 μM aqueous solution (in terms of rutin or molarity of quercetin), 15 g
[4] = 750 μM aqueous solution (in terms of rutin or molarity of quercetin), 15 g
[5] = 3750 μM aqueous solution (in terms of rutin or molarity of quercetin), 15 g
[6] = Non-thickened: 150 μM, xanthan gum-free, viscosity 1 mPa·s
[7] = Thickened: 150 μM with 0.1 mass % xanthan gum, viscosity 20 mPa·s

α-glucosylrutin [αG rutin]
Amount of salivation (standardized with water) [1, 2]: 0.910
Amount of salivation (standardized with water) [1, 3]: 0.841
Amount of salivation (standardized with water) [1, 4]: 0.872
Amount of salivation (standardized with water) [1, 5]: 0.932
Salivation-promoting (saliva secretion-increasing) effect, in words [1]: not observed
Salivation-promoting (saliva secretion-increasing) effect, in words ([1]; listed as α-glucosylrutin): no salivation-promoting effect
Enhancement of the salivation-promoting effect by incorporating a thickening polysaccharide (thickening), in words [1]: not observed
Amount of salivation (standardized with water) [1, 6]: 0.841
Amount of salivation (standardized with water) [1, 7]: 0.719

O=c1c(O)c(-c2ccc(O)c(O)c2)oc2cc(O)cc(O)c12 [quercetin]
Amount of salivation (standardized with water) [1, 2]: 0.989
Amount of salivation (standardized with water) [1, 3]: 0.826
Amount of salivation (standardized with water) [1, 4]: 1.032
Amount of salivation (standardized with water) [1, 5]: 1.132
Salivation-promoting (saliva secretion-increasing) effect, in words [1]: not observed; also recorded: no salivation-promoting effect
Enhancement of the salivation-promoting effect by incorporating a thickening polysaccharide (thickening), in words [1]: not observed
Amount of salivation (standardized with water) [1, 6]: 0.826
Amount of salivation (standardized with water) [1, 7]: 0.868
Effect on hyposalivation (saliva secretion in mice; model mice having disturbance of salivary secretion created by radiation exposure): reduces hyposalivation
Effect on saliva secretion (saliva secretion in mice; normal mice): enhances saliva secretion
